In patent publication US12281149B2, “Modulators of G-protein coupled receptors” (priority 2021, dated 2025):
*1 amine or outer side, *2 acyl side, *3 side chain or, on linkers, in order; H or OH if unused. Where a SMILES comes first, the peptide text is derived from it. Side-chain parts run from the residue outwards. [ ]: non-standard residue; d: D form. The star is where a group is joined. Isobutyryl(2-(3-CN-5-F-Ph)) = CC(C)(C(=O)*)c1cc(F)cc(C#N)c1; C20 diacid = O=C(O)CCCCCCCCCCCCCCCCCCC(=O)*; X74 = CC(C)(C(=O)*)c1cc(F)cc(C(F)(F)F)c1; γGlu = O=C(O)[C@H](CCC(=O)[*:2])N[*:1]; X71 = COc1cc(F)cc(C(C)(C)C(=O)*)c1; X27 = O=C1CC(C(=O)*)(c2ccccc2)CN1; X38 = CC(C)(C(=O)*)c1cc(O)cc(F)c1; AEEA = NCCOCCOCC(=O)O; Aib = CC(C)(N)C(=O)O; GABA = NCCCC(=O)O; βAla = NCCC(=O)O

Legend:
Type in all cases: cell-based
[1] = target: T1, GIP receptor (Homo sapiens, UniProt P48546); assay: HitHunter cAMP assay, GIP receptor; settings: for EC50: CHO cells stably expressing GIP receptor, cAMP accumulation, 30 min, read-out: EC50 GIP-1R; for Emax: CHO cells, cAMP, normalized to maximum signal from GIP (high) and DMSO (low), read-out: Emax GIP-1R
T1 sequence (P48546 22-466): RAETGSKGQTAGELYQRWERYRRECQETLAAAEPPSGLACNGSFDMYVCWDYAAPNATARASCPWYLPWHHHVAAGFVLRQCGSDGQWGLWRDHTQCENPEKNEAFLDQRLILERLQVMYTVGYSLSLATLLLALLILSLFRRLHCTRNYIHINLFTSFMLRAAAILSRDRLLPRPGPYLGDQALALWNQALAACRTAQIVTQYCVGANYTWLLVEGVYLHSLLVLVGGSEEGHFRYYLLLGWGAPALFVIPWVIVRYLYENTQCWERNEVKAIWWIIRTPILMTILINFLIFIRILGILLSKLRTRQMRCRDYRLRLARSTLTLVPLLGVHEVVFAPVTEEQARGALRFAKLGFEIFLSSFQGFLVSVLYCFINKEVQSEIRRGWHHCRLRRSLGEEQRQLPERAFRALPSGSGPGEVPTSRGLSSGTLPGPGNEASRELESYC

[2] = target: T1, GIP receptor; assay: PathHunter β-arrestin assay, GIP receptor; design: host or cells: PathHunter CHO-K1 GIPR β-Arrestin Cell Line; settings: β-arrestin-2 recruitment, PathHunter CHO-K1 GIPR β-Arrestin Cell Line, 90 min at 37° C.; normalized to GIP; read-out: GIPR β Arrestin EC50
[3] = target: T2, GLP-1 receptor (Homo sapiens, UniProt P43220); assay: PathHunter β-arrestin assay, GLP-1 receptor; design: host or cells: PathHunter CHO-K1 GLP1R β-Arrestin Cell Line; settings: β-arrestin-2 recruitment, PathHunter CHO-K1 GLP1R β-Arrestin Cell Line, 90 min at 37° C.; normalized to GLP-1; read-out: GLP-1R β Arrestin EC50
[4] = target: T2, GLP-1 receptor; assay: HitHunter cAMP assay, GLP-1 receptor; settings: for EC50: CHO cells stably expressing human GLP-1 receptor, cAMP accumulation, 30 min, read-out: EC50 GLP-1R; for Emax: CHO cells, cAMP, normalized to maximum signal from GLP-1 (high) and DMSO (low), read-out: Emax GLP-1R

T2 sequence (P43220 24-463): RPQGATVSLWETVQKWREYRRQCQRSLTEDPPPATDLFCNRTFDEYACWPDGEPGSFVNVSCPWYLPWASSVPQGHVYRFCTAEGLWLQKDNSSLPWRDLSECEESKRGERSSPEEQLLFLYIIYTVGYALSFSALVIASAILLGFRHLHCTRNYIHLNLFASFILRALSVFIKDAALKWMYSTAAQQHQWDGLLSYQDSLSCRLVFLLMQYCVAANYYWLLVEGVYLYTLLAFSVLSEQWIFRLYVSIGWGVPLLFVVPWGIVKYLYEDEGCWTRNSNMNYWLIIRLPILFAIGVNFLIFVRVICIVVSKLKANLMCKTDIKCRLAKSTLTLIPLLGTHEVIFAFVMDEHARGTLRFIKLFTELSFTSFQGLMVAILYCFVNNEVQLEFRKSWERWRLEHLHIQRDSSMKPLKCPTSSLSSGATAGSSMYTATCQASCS

**Q.** Which results are given for `CC[C@H](C)[C@H](NC(=O)[C@H](CC(C)C)NC(=O)[C@H](Cc1c[nH]c2ccccc12)NC(=O)[C@H](CCC(N)=O)NC(=O)[C@@H](NC(=O)[C@H](Cc1ccccc1)NC(=O)[C@H](C)NC(=O)[C@H](CCCCNC(=O)COCCOCCNC(=O)COCCOCCNC(=O)CC[C@H](NC(=O)CCCCCCCCCCCCCCCCCCC(=O)O)C(=O)O)NC(=O)[C@H](CCC(N)=O)NC(=O)[C@H](C)NC(=O)[C@@H](NC(=O)[C@H](CCCCN)NC(=O)[C@H](CC(=O)O)NC(=O)[C@H](CC(C)C)NC(=O)C(C)(C)NC(=O)[C@@H](NC(=O)[C@H](CO)NC(=O)[C@H](Cc1ccc(O)cc1)NC(=O)[C@H](CC(=O)O)NC(=O)[C@H](CO)NC(=O)[C@@H](NC(=O)[C@H](Cc1ccccc1)NC(=O)[C@@H](NC(=O)CNC(=O)[C@H](CCC(=O)O)NC(=O)CCNC(=O)C(C)(C)c1cc(O)cc(F)c1)[C@@H](C)O)[C@@H](C)O)[C@@H](C)CC)[C@@H](C)CC)C(C)C)C(=O)N[C@@H](C)C(=O)NCC(=O)NCC(=O)N1CCC[C@H]1C(=O)N[C@@H](CO)C(=O)N[C@@H](CO)C(=O)NCC(=O)N[C@@H](C)C(=O)N1CCC[C@H]1C(=O)N1CCC[C@H]1C(=O)N1CCC[C@H]1C(=O)N[C@@H](CO)C(N)=O` [Compound 117] ({X38-βAla}-EGTFTSDYSI[Aib]LDKIAQK([AEEA-AEEA-γGlu-C20 diacid])AFVQWLIAGGPSSGAPPPS-NH2)?
**A.** EC50 [1]: 1 to 10 nM; Emax [1]: 100%; EC50 [2]: > 1000 nM; EC50 [3]: > 1000 nM; EC50 [4]: 0.1 to 1 nM; Emax [4]: 96%

**Q.** `CC[C@H](C)[C@H](NC(=O)[C@H](CC(C)C)NC(=O)[C@H](Cc1c[nH]c2ccccc12)NC(=O)[C@H](CCC(N)=O)NC(=O)[C@@H](NC(=O)[C@H](Cc1ccccc1)NC(=O)[C@H](C)NC(=O)[C@H](CCCCNC(=O)COCCOCCNC(=O)COCCOCCNC(=O)CC[C@H](NC(=O)CCCCCCCCCCCCCCCCCCC(=O)O)C(=O)O)NC(=O)[C@H](CCC(N)=O)NC(=O)[C@H](C)NC(=O)[C@@H](NC(=O)[C@H](CCCCN)NC(=O)[C@H](CC(=O)O)NC(=O)[C@H](CC(C)C)NC(=O)C(C)(C)NC(=O)[C@@H](NC(=O)[C@H](CO)NC(=O)[C@H](Cc1ccc(O)cc1)NC(=O)[C@H](CC(=O)O)NC(=O)[C@H](CO)NC(=O)[C@@H](NC(=O)[C@H](Cc1ccccc1)NC(=O)[C@@H](NC(=O)CNC(=O)[C@H](CCC(=O)O)NC(=O)CCNC(=O)C(C)(C)c1cc(F)cc(OC)c1)[C@@H](C)O)[C@@H](C)O)[C@@H](C)CC)[C@@H](C)CC)C(C)C)C(=O)N[C@@H](C)C(=O)NCC(=O)NCC(=O)N1CCC[C@H]1C(=O)N[C@@H](CO)C(=O)N[C@@H](CO)C(=O)NCC(=O)N[C@@H](C)C(=O)N1CCC[C@H]1C(=O)N1CCC[C@H]1C(=O)N1CCC[C@H]1C(=O)N[C@@H](CO)C(N)=O` [Compound 118] ({X71-βAla}-EGTFTSDYSI[Aib]LDKIAQK([AEEA-AEEA-γGlu-C20 diacid])AFVQWLIAGGPSSGAPPPS-NH2) was tested. Which EC50 [1] did it give?
**A.** 10 to 100 nM

**Q.** And the Emax [1]?
**A.** 105%

**Q.** What about the EC50 [2] of the same molecule?
**A.** > 1000 nM

**Q.** And the EC50 [3]?
**A.** > 1000 nM

**Q.** And the EC50 [4]?
**A.** 1 to 10 nM

**Q.** And the Emax [4]?
**A.** 103%

**Q.** Which EC50 [1] does the source give for `CC[C@H](C)[C@H](NC(=O)[C@H](CC(C)C)NC(=O)[C@H](Cc1c[nH]c2ccccc12)NC(=O)[C@H](CCC(N)=O)NC(=O)[C@@H](NC(=O)[C@H](Cc1ccccc1)NC(=O)[C@H](C)NC(=O)[C@H](CCCCNC(=O)COCCOCCNC(=O)COCCOCCNC(=O)CC[C@H](NC(=O)CCCCCCCCCCCCCCCCCCC(=O)O)C(=O)O)NC(=O)[C@H](CCC(N)=O)NC(=O)[C@H](C)NC(=O)[C@@H](NC(=O)[C@H](CCCCN)NC(=O)[C@H](CC(=O)O)NC(=O)[C@H](CC(C)C)NC(=O)C(C)(C)NC(=O)[C@@H](NC(=O)[C@H](CO)NC(=O)[C@H](Cc1ccc(O)cc1)NC(=O)[C@H](CC(=O)O)NC(=O)[C@H](CO)NC(=O)[C@@H](NC(=O)[C@H](Cc1ccccc1)NC(=O)[C@@H](NC(=O)CNC(=O)[C@H](CCC(=O)O)NC(=O)CCNC(=O)C(C)(C)c1cc(F)cc(C(F)(F)F)c1)[C@@H](C)O)[C@@H](C)O)[C@@H](C)CC)[C@@H](C)CC)C(C)C)C(=O)N[C@@H](C)C(=O)NCC(=O)NCC(=O)N1CCC[C@H]1C(=O)N[C@@H](CO)C(=O)N[C@@H](CO)C(=O)NCC(=O)N[C@@H](C)C(=O)N1CCC[C@H]1C(=O)N1CCC[C@H]1C(=O)N1CCC[C@H]1C(=O)N[C@@H](CO)C(N)=O` [Compound 119] ({X74-βAla}-EGTFTSDYSI[Aib]LDKIAQK([AEEA-AEEA-γGlu-C20 diacid])AFVQWLIAGGPSSGAPPPS-NH2) here?
**A.** 10 to 100 nM

**Q.** What about the Emax [1] of the same molecule?
**A.** 99%

**Q.** And the EC50 [2]?
**A.** > 1000 nM

**Q.** What about the EC50 [3] of the same molecule?
**A.** > 1000 nM

**Q.** What about the EC50 [4] of the same molecule?
**A.** 1 to 10 nM

**Q.** And the Emax [4]?
**A.** 102%

**Q.** For `CC[C@H](C)[C@H](NC(=O)[C@H](CC(C)C)NC(=O)[C@H](Cc1c[nH]c2ccccc12)NC(=O)[C@H](CCC(N)=O)NC(=O)[C@@H](NC(=O)[C@H](Cc1ccccc1)NC(=O)[C@H](C)NC(=O)[C@H](CCCCNC(=O)COCCOCCNC(=O)COCCOCCNC(=O)CC[C@H](NC(=O)CCCCCCCCCCCCCCCCCCC(=O)O)C(=O)O)NC(=O)[C@H](CCC(N)=O)NC(=O)[C@H](C)NC(=O)[C@@H](NC(=O)[C@H](CCCCN)NC(=O)[C@H](CC(=O)O)NC(=O)[C@H](CC(C)C)NC(=O)C(C)(C)NC(=O)[C@@H](NC(=O)[C@H](CO)NC(=O)[C@H](Cc1ccc(O)cc1)NC(=O)[C@H](CC(=O)O)NC(=O)[C@H](CO)NC(=O)[C@@H](NC(=O)[C@H](Cc1ccccc1)NC(=O)[C@@H](NC(=O)CNC(=O)[C@@H](CC(=O)O)NC(=O)CCCNC(=O)C(C)(C)c1cc(F)cc(C#N)c1)[C@@H](C)O)[C@@H](C)O)[C@@H](C)CC)[C@@H](C)CC)C(C)C)C(=O)N[C@@H](C)C(=O)NCC(=O)NCC(=O)N1CCC[C@H]1C(=O)N[C@@H](CO)C(=O)N[C@@H](CO)C(=O)NCC(=O)N[C@@H](C)C(=O)N1CCC[C@H]1C(=O)N1CCC[C@H]1C(=O)N1CCC[C@H]1C(=O)N[C@@H](CO)C(N)=O` [Compound 120] ({Isobutyryl(2-(3-CN-5-F-Ph))-GABA}-[dD]GTFTSDYSI[Aib]LDKIAQK([AEEA-AEEA-γGlu-C20 diacid])AFVQWLIAGGPSSGAPPPS-NH2), which EC50 [1] is on record?
**A.** 100 to 1000 nM

**Q.** And the Emax [1]?
**A.** 40%

**Q.** And the EC50 [2]?
**A.** > 1000 nM

**Q.** What about the EC50 [3] of the same molecule?
**A.** > 1000 nM

**Q.** What about the EC50 [4] of the same molecule?
**A.** 10 to 100 nM

**Q.** And the Emax [4]?
**A.** 104%

**Q.** Which EC50 [1] does the source give for `CC[C@H](C)[C@H](NC(=O)[C@H](CC(C)C)NC(=O)[C@H](Cc1c[nH]c2ccccc12)NC(=O)[C@H](CCC(N)=O)NC(=O)[C@@H](NC(=O)[C@H](Cc1ccccc1)NC(=O)[C@H](C)NC(=O)[C@H](CCCCNC(=O)COCCOCCNC(=O)COCCOCCNC(=O)CC[C@H](NC(=O)CCCCCCCCCCCCCCCCCCC(=O)O)C(=O)O)NC(=O)[C@H](CCC(N)=O)NC(=O)[C@H](C)NC(=O)[C@@H](NC(=O)[C@H](CCCCN)NC(=O)[C@H](CC(=O)O)NC(=O)[C@H](CC(C)C)NC(=O)C(C)(C)NC(=O)[C@@H](NC(=O)[C@H](CO)NC(=O)[C@H](Cc1ccc(O)cc1)NC(=O)[C@H](CC(=O)O)NC(=O)[C@H](CO)NC(=O)[C@@H](NC(=O)[C@H](Cc1ccccc1)NC(=O)[C@@H](NC(=O)CNC(=O)[C@@H](CC(=O)O)NC(=O)CCCNC(=O)C1(c2ccccc2)CNC(=O)C1)[C@@H](C)O)[C@@H](C)O)[C@@H](C)CC)[C@@H](C)CC)C(C)C)C(=O)N[C@@H](C)C(=O)NCC(=O)NCC(=O)N1CCC[C@H]1C(=O)N[C@@H](CO)C(=O)N[C@@H](CO)C(=O)NCC(=O)N[C@@H](C)C(=O)N1CCC[C@H]1C(=O)N1CCC[C@H]1C(=O)N1CCC[C@H]1C(=O)N[C@@H](CO)C(N)=O` (stereo partly drawn) [Compound 121] ({X27-GABA}-[dD]GTFTSDYSI[Aib]LDKIAQK([AEEA-AEEA-γGlu-C20 diacid])AFVQWLIAGGPSSGAPPPS-NH2) here?
**A.** > 1000 nM

**Q.** What about the Emax [1] of the same molecule?
**A.** 76%

**Q.** And the EC50 [2]?
**A.** < 1000 nM

**Q.** What about the EC50 [3] of the same molecule?
**A.** > 1000 nM

**Q.** And the EC50 [4]?
**A.** 10 to 100 nM

**Q.** What about the Emax [4] of the same molecule?
**A.** 72%
